Source: patent publication US12558428B2, “Heterobifunctional compounds and their use in treating disease” (Halda Therapeutics OpCo, Inc., priority 2024, dated 2026)
Read-outs that look alike come from different tables or passages of the source.

How the values were obtained:
[1] = tested on: T-Rex 293 cells having increased expression of estrogen receptor alpha protein; assay: Cellular growth inhibition assay, T-Rex 293 cells, (+) doxycycline; assay type: cell-based; settings: T-REx-293, 72 h, 72 hours
Method: (§1) Exemplary compounds were tested for the ability to inhibit the proliferation of the following types of cells: (i) a T-Rex 293 cell line having increased expression of estrogen receptor alpha protein from exposure to doxycycline and (ii) a T-Rex 293 cell line lacking increased expression of estrogen receptor alpha protein.
(§2) The following types of cells were prepared for this experiment: (i) a T-Rex 293 cell line having increased expression of estrogen receptor alpha protein from exposure to doxycycline and (ii) a T-Rex 293 cell line lacking increased expression of estrogen receptor alpha protein. The ability of the test compounds to inhibit proliferation of the foregoing cell types was evaluated according to the procedures set forth below.
(§3) The doxycycline-inducible estrogen receptor alpha protein expressing cell line was established using the following protocol: T-Rex 293 cells were purchased from Invitrogen (Cat #R71007) and transfected using Lipofectamine 2000 with the wild-type estrogen receptor alpha protein sequence cloned into the pcDNA4/TO vector. Transfected cells were selected using 400 μg/mL Zeocin (Invitrogen Cat #R25001). Following selection, single clones were raised and maintained in Dulbecco's Modified Eagle Medium (DMEM) supplemented with 10% w/w Tetracycline-free fetal bovine serum (FBS) and 250 μg/mL Zeocin. Clones were analyzed for expression of estrogen receptor alpha protein in the presence and absence of 3 ng/mL doxycycline (Sigma Cat #D9891), and a single doxycycline-inducible clone (hereinafter “SC”) was selected for use in downstream assays.
(§4) The SC cells were seeded on poly-D-lysine coated, black clear-bottom 384-well plates at 2500/well, in 25 μL Phenol Red Free Dulbecco's Modified Eagle Medium (DMEM) supplemented with 10% w/w charcoal-dextran treated fetal bovine serum (FBS) and 1% w/w pen-strep, with or without 3 ng/mL doxycycline. Pen-Strep is a commercially available mixture of penicillin G and streptomycin, which is used in mammalian cell culture media to prevent bacterial contamination. Phenol Red Free Dulbecco's Modified Eagle Medium (DMEM) supplemented with 10% w/w charcoal-dextran treated fetal bovine serum (FBS) and 1% w/w pen-strep, with or without 3 ng/mL doxycycline is herein referred to as Treatment Medium. Following seeding of cells in the plates, the plates were spun at 300×g for 30 seconds, then equilibrated to room temperature for 30 minutes, and then deposited in a humidified tissue culture incubator maintained at 37° C. with 5% CO2.
(§5) At 24 hours after seeding of the cells, dilutions of test compound were prepared in DMSO and dissolved in Treatment Medium, to achieve a final DMSO concentration of 0.5% w/w, thereby providing the Test Compound Solution. A 25 μL aliquot of the Test Compound Solution was added to cells in the well plates. An equal volume of a solution containing DMSO and Treatment Medium was used as a negative control. Following treatment of cells with Test Compound Solution or said equal volume of a solution containing DMSO and Treatment Medium, the plates were spun at 300×g for 30 seconds, and then left in an incubator for 72 hours.
(§6) At the end of the treatment duration, cell viability was quantified with CellTiter-Glo 2.0 reagent (Promega Cat #G9243). For this purpose, plates were equilibrated to room temperature for 30 minutes, and then 25 μL of CellTiter-Glo 2.0 reagent was added to cells in the plate wells. Plates were then agitated on a shaker for two minutes at 500 rpm and subsequently incubated at room temperature for 10 minutes. Following incubation, the plates were spun at 3000×g for 30 seconds, then sealed with an optical adhesive cover, and luminescence readings were measured with an EnVision Plate Reader (Perkin Elmer).
(§7) Data was normalized using zero luminescence for baseline. […]

[2] = tested on: T-Rex 293 cells lacking increased expression of estrogen receptor alpha protein; assay: Cellular growth inhibition assay, T-Rex 293 cells, (−) doxycycline; assay type: cell-based; settings: T-REx-293, 72 h, 72 hours
Method: as §1, §2, §3, §4, §5, §6, §7

[3] = Table 7-A, T-Rex 293 cells with doxycycline (increased ERα expression), CellTiter-Glo, read-out: (+) Dox GI50
[4] = Table 7-A, T-Rex 293 cells without doxycycline (lacking increased ERα expression), CellTiter-Glo, read-out: (−) Dox GI50

Row | SMILES | GI50 [1, 3] [nM] | GI50 [2, 4] [nM] | GI50 ([1]; T-Rex 293 cells with doxycycline-induced ERα expression, CellTiter-Glo 2.0, read-out: (+) Dox TRex ERa (GI50)) [nM] | GI50 ([2]; T-Rex 293 cells without doxycycline, CellTiter-Glo 2.0, read-out: (−) Dox TRex ERa (GI50)) [nM]
1 | COc1cc(N2CCN(CC3(O)CCN(c4ccc(C5=N[C@@H](C)c6nnc(C)n6-c6sc(C)c(C)c65)cc4)CC3)CC2)ccc1[C@@H]1c2ccc(O)cc2CC[C@@H]1c1ccccc1 (single isomer, unassigned) [III-321] | < 50 | 500 to 2500 | – | –
2 | COc1cc(N2CCN(CC3(O)CCN(c4ccc(C5=N[C@@H](C)c6nnc(C)n6-c6sc(C)c(C)c65)cc4)CC3)CC2)ccc1[C@H]1c2ccc(O)cc2CC[C@H]1c1ccccc1 (single isomer, unassigned) [III-322] | 50 to 500 | 50 to 500 | – | –
3 | COc1cc(N2CCN(CC3(O)CCN(c4ccc(C5=N[C@@H](C)c6nnc(C)n6-c6sc(C)c(C)c65)c(F)c4)CC3)CC2)ccc1[C@H]1c2ccc(O)cc2CC[C@H]1c1ccc(F)cc1 (single isomer, unassigned) [III-327] | 50 to 500 | 50 to 500 | – | –
4 | COc1cc(N2CCN(CC3(O)CCN(c4ccc(C5=N[C@@H](C)c6nnc(C)n6-c6sc(C)c(C)c65)cc4)CC3)CC2)ccc1[C@H]1c2ccc(O)cc2CC[C@H]1c1ccc(F)cc1F (single isomer, unassigned) [III-333] | 50 to 500 | 500 to 2500 | – | –
5 | COc1cc(N2CCN(CC3(O)CCN(c4ccc(C5=N[C@@H](C)c6nnc(C)n6-c6sc(C)c(C)c65)cc4)CC3)CC2)ccc1[C@@H]1c2ccc(O)cc2CC[C@@H]1c1ccc(F)cc1F (single isomer, unassigned) [III-334] | < 50 | 500 to 2500 | – | –
6 | COc1ccc([C@@H]2CCc3cc(O)ccc3[C@@H]2c2ccc(N3CCN(CC4(O)CCN(c5ccc(C6=N[C@@H](C)c7nnc(C)n7-c7sc(C)c(C)c76)cc5)CC4)CC3)cc2Cl)cc1 (single isomer, unassigned) [III-335] | 50 to 500 | 500 to 2500 | – | –
7 | COc1ccc([C@H]2CCc3cc(O)ccc3[C@H]2c2ccc(N3CCN(CC4(O)CCN(c5ccc(C6=N[C@@H](C)c7nnc(C)n7-c7sc(C)c(C)c76)cc5)CC4)CC3)cc2Cl)cc1 (single isomer, unassigned) [III-336] | < 50 | 500 to 2500 | – | –
8 | Cn1cc(-c2cc(C(C)(C)O)ccc2Oc2ccc(N3CCN(CC4CCN(c5ccc([C@@H]6c7ccc(O)cc7CC[C@@H]6c6ccccc6)cc5)CC4)CC3)cc2)c2cc[nH]c2c1=O [I-18, 4-(2-(4-(4-((1-(4-((1R,2S)-6-hydroxy-2-phenyl-1,2,3,4-tetrahydronaphthalen-1-yl)phenyl)piperidin-4-yl)methyl)piperazin-1-yl)phenoxy)-5-(2-hydroxypropan-2-yl)phenyl)-6-methyl-1,6-dihydro-7H-pyrrolo[2,3-c]pyridin-7-one] | – | – | < 50 | 50 to 500
9 | Cc1sc2c(c1C)C(c1ccc(N3CC(N4CCN(CCOc5ccc([C@@H]6c7ccc(O)cc7CC[C@@H]6c6ccccc6)cc5)CC4)C3)cc1)=NC(Cc1ncco1)c1nnc(C)n1-2 (stereo partly shown) [III-41] | < 50 | 50 to 500 | – | –
10 | COc1cc(N2CCN(CC3CCN(c4ccc(C5=N[C@@H](C)c6nnc(C)n6-c6sc(C)c(C)c65)cc4)CC3)CC2)c(F)cc1[C@@H]1c2ccc(O)cc2CC[C@@H]1c1ccc(F)cc1 [III-313] | < 50 | 500 to 2500 | – | –
11 | COc1cc(N2CCN(CC3CCN(c4ccc(C5=N[C@@H](C)c6nnc(C)n6-c6sc(C)c(C)c65)cc4)CC3)CC2)c(F)cc1[C@H]1c2ccc(O)cc2CC[C@H]1c1ccc(F)cc1 [III-314] | 50 to 500 | 500 to 2500 | – | –
12 | COc1cc(N2CCN(CC3CCN(c4ccc(C5=N[C@@H](C)c6nnc(C)n6-c6sc(C)c(C)c65)cc4)CC3)CC2)ccc1[C@H]1c2ccc(O)cc2CC[C@H]1c1ccc(F)cc1 [III-315] | 500 to 2500 | 500 to 2500 | – | –
13 | COc1cc(N2CCN(CC3CCN(c4ccc(C5=N[C@@H](C)c6nnc(C)n6-c6sc(C)c(C)c65)cc4)CC3)CC2)ccc1[C@@H]1c2ccc(O)cc2CC[C@@H]1c1ccc(F)cc1 [III-316] | < 50 | 500 to 2500 | – | –
14 | COc1cc(N2CCN(CC3(O)CCN(c4ccc(C5=N[C@@H](C)c6nnc(C)n6-c6sc(C)c(C)c65)cc4)CC3)CC2)c(F)cc1[C@H]1c2ccc(O)cc2CC[C@H]1c1ccc(F)cc1 [III-319] | < 50 | 50 to 500 | – | –
